Data: paper PMC6473556, “Targetable Mechanical Properties by Switching between Self‐Sorting and Co‐assembly with In Situ Formed Tripodal Ketoenamine Supramolecular Hydrogels” (Chemnanomat, 2018)

Assays:
Assay type in all cases: physicochemical
[1] = Rheometry of the gels (time, frequency and stress sweeps); conditions: gel at 40 mM gelator concentration, standard deviation in brackets; for Yield stress: rounded to nearest 10; for G′ / G′′: rounded to nearest 100
Method: Another observation is the difference in transparency between the gels (Figure 1). Gels R2 and R6 are noticeably more transparent than the other gels. This transparency is a result of gels R2 and R6 having narrower fibres and therefore scattering less light (Figure S59). […] The responses of the nine presented gels to mechanical stimulus were determined using rheometry (Table 1). Although differences in mechanical properties are apparent when comparing one gel to another the difference between the same gel prepared ex situ and in situ is negligible (see ESI). Once a constant value for G′ had been recording during the time sweep experiments, the gelatinous nature of the materials was confirmed using frequency sweep rheometry.
For all gels the G′ and G“ values remained constant over a frequency range of 0.1–100 Hz, with the value of G′ several times the value recorded for G” (Figure 3). To examine the gels’ non‐linear rheological behaviour stress sweep experiments were conducted. The defining point of the experiment is the yield stress, below which G′ remains essentially constant, but above which the gel begins to flow (see ESI).

[2] = Critical gel concentration, inverted vial method; conditions: 0.5 ml water
Method: 3.3 Setting gel using the ex situ prepared compound (gels R1 to R8 inclusively):
This procedure describes the method used in a typical setting of the hydrogel at 2 wt% using the previously prepared synthesised compound.
The gel ligand (0.1 g) was suspended in water, to this suspension sodium hydroxide was added (0.05 g, 1.25 mmol). Sonication and gentle heating was used to ensure the ligand had completely dissolved giving a solution with a pH of 9 – 10. To this solution glucono delta-lactone (GdL) (0.08 g, 0.45 mmol) was added and the solution was shaken until the GdL had […]
3.4 Setting gel R9 using the ex situ prepared compound:
This procedure describes the method used in a typical setting of the hydrogel R9 at 2 wt% using the previously prepared synthesised compound R9.
The synthesised compound R9 (0.1 g, 0.21 mmol) was suspended in water (5 ml), to this suspension sodium hydroxide was added (0.05 g, 1.25 mmol). Sonication and gentle heating was used to ensure the ligand had completely dissolved giving a solution with a pH of 9 – 10.
To this solution conc. Hydrochloric acid (0.4 ml) was rapidly added instantly producing a […]
3.5 Critical gel concentration (CGC):
Critical gel concentration was determined using the inverted vial method in 2 ml sample vials using 0.5 ml of water. This method can often give lower CGC values than are determined using a rheometer due to the low volume of solution and the high surface tension within the vials.

[3] = Gelation on lowering the pH with glucono-delta-lactone; conditions: in situ reaction at high pH after addition of GdL

Yield stress [1] | G′ [1] | G′′ [1] | CGC (critical gel concentration) [2] [Wt%] | Gelation [3] | SMILES
80(20) μNm | 12700(100) Pa | 3300(200) Pa | 0.2 | – | O=C1C(=CNc2ccc(Cl)c(C(=O)O)c2)C(=O)C(=CNc2ccc(Cl)c(C(=O)O)c2)C(=O)C1=CNc1ccc(Cl)c(C(=O)O)c1 [R2]
– | – | – | – | no gelation | O=C(O)CCCCCNC=C1C(=O)C(=CNCCCCCC(=O)O)C(=O)C(=CNCCCCCC(=O)O)C1=O [R10]
140(20) μNm | 10200(300) Pa | 2100(100) Pa | 0.5 | – | COc1cc(NC=C2C(=O)C(=CNc3ccc(C(=O)O)c(OC)c3)C(=O)C(=CNc3ccc(C(=O)O)c(OC)c3)C2=O)ccc1C(=O)O [R3]
80(20) μNm | 10800(200) Pa | 3100(400) Pa | 0.4 | – | O=C1C(=CNc2cc(C(=O)O)ccc2O)C(=O)C(=CNc2cc(C(=O)O)ccc2O)C(=O)C1=CNc1cc(C(=O)O)ccc1O [R5]
20(40) μNm | 1200(100) Pa | 300(300) Pa | 0.9 | – | O=C1C(=CNc2ccc(O)cc2)C(=O)C(=CNc2ccc(O)cc2)C(=O)C1=CNc1ccc(O)cc1 [R9]
90(30) μNm | 8800(200) Pa | 2100(300) Pa | 0.5 | – | COc1c(NC=C2C(=O)C(=CNc3cccc(C(=O)O)c3OC)C(=O)C(=CNc3cccc(C(=O)O)c3OC)C2=O)cccc1C(=O)O [R7]
40(10) μNm | 9300(200) Pa | 2100(200) Pa | 0.4 | – | O=C1C(=CNc2ccc(C(=O)O)cc2O)C(=O)C(=CNc2ccc(C(=O)O)cc2O)C(=O)C1=CNc1ccc(C(=O)O)cc1O [R4]
70(20) μNm | 9600(100) Pa | 2500(200) Pa | 0.5 | – | Cc1cc(NC=C2C(=O)C(=CNc3ccc(C(=O)O)c(C)c3)C(=O)C(=CNc3ccc(C(=O)O)c(C)c3)C2=O)ccc1C(=O)O [R8]
140(10) μNm | 9000(200) Pa | 2300(100) Pa | 0.3 | – | O=C1C(=CNc2ccc(C(=O)O)cc2)C(=O)C(=CNc2ccc(C(=O)O)cc2)C(=O)C1=CNc1ccc(C(=O)O)cc1 [R1]
250(30) μNm | 15400(300) Pa | 2600(200) Pa | 0.1 | – | O=C1C(=CNc2cc(C(=O)O)cc(C(F)(F)F)c2)C(=O)C(=CNc2cc(C(=O)O)cc(C(F)(F)F)c2)C(=O)C1=CNc1cc(C(=O)O)cc(C(F)(F)F)c1 [R6]
